Source: article PMC8003975 (Cancers, 2021)
Values after ≈ are worked out from the molar mass of the structure shown.

Tests used:
[1] = system: JHU022 cells; assay: Cytotoxicity assay (Cell Counting Kit-8); format: cell-based; settings: Homo sapiens, 48 h
Description: (§1) Normal oral keratinocytes (NOK) (kindly gifted by Dr. Karl Mugner, Tuffs University, Boston, MA, USA) were maintained in Keratinocyte SFM medium supplemented with EGF and bovine pituitary extract (GIBCO, Life Technologies, Berkeley, MO, USA) and 1% penicillin/ streptomycin. HNC cell line Cal27 was purchased from the ATCC. JHU029 (JHU-29) and JHU022 (JHU-22) cell lines were procured from the Johns Hopkins University (Baltimore, MD, USA). The Cal27 and JHU022 cells were maintained in Dulbecco’s Modified Eagle Medium (DMEM), and JHU029 cells were in RPMI1640 (Sigma, St. Louis, MO, USA) media supplemented with 10% FBS and 1% penicillin/ streptomycin (Sigma-Aldrich, St. Louis, MO, USA) in a humidified CO2 incubator. The cell lines are routinely tested in our laboratory to rule out mycoplasma contamination using a commercial MycoAlert™ Mycoplasma Detection kit (Lonza, Morrisville, NC, USA). Cal27 cells are tongue origin and JHU022 and JHU029 cells are from laryngx origin.
(§2) Cal27, JHU029, JHU022 and NOK were seeded in 96 well-plate (5000 cells/well) and cells were treated with different concentration of M-I for 48 h. There were untreated control and DMSO treated vehicle control group for comparison. Cytotoxicity assay was performed using Cell Counting Kit-8 (Dojindo Molecular Technology, Rockville, MD, USA) according to manufacturer instruction.

[2] = system: human normal oral keratinocytes (NOK); assay: Cytotoxicity assay (Cell Counting Kit-8); format: cell-based; settings: 48 h
Description: as §1, §2

[3] = system: JHU029 cells; assay: Cytotoxicity assay (Cell Counting Kit-8); format: cell-based; settings: Homo sapiens, 48 h
Description: as §1, §2

[4] = system: Cal27 cells; assay: Cytotoxicity assay (Cell Counting Kit-8); format: cell-based; settings: Homo sapiens, CAL-27, 48 h
Description: as §1, §2

[5] = literature-reported biology of the tentatively identified metabolite; no reference given; cited from earlier work
[6] = system: cyclin D1; assay: Western blot of treated HNC cells; format: cell-based, human; settings: Cal27 and JHU029 cells, 48 hr; 2% BME or 10 µg/mL M-I
Protocol: (§3) Figure 3 Momordicine-I inhibits downstream of c-Met signaling in HNC cells. Representative Western blot image for c-Myc, survivin and cyclin D1 expression in Cal27 and JHU029 cells with treatment of BME or M-I. The same membrane used in panel A was reprobed. Actin was used as internal control. Quantitative representation of Western blot band intensities (right panel). Small bar indicates standard error (*** p < 0.001).
(§4) Bitter melon extract (BME) was prepared from the Chinese variety of young bitter melons (raw and green) as described previously. Briefly, BME was prepared by aqueous extraction from whole fruit without seeds using a household juicer at room temperature with subsequent centrifugation at 15000× g at 4 °C for 30 min. BME was stored at −80 °C for further analysis. Cal27 and JHU029 cells were treated with 2% BME and JHU022 cells were treated with 3% BME as described previously. The momordicine-I (>98% pure) was purchased from Chemfaces (Cat. No.: CFN92076; Hubei, China). The powder was dissolved in DMSO and added to the cells at different concentrations. Based on cytotoxicity data, Cal27 and JHU029 cells were treated with 10 µg/mL and JHU022 cells were treated with 20 µg/mL dose of M-I and incubated for 48 hr for further experiments. All the experiments were done at least in triplicate. […]

[7] = system: c-Myc; assay: Western blot of treated HNC cells; format: cell-based, human; settings: Cal27 and JHU029 cells, 48 hr; 2% BME or 10 µg/mL M-I
Protocol: as §3, §4

[8] = Pharmacokinetic study, single dose IP or oral gavage; format: in vivo, C57Bl/6 male mice; settings: male C57Bl/6 mouse blood
[9] = system: phospho-STAT3 (Tyr-705); assay: Western blot of treated HNC cells; format: cell-based, human
Protocol: (§5) Figure 2 Momordicine-I inhibited c-Met signaling in HNC cells. (A) Cal27, JHU029 […] cells were treated with either 2% BME or 10 µg/mL of M-I and JHU022 cells were treated with either 3% BME or 20 µg/mL dose of M-I. Cell lysates were prepared after 48 hr of treatment and subjected to Western blot analysis using specific antibodies. Representative Western blot images for c-Met expression in Cal27, JHU029 and JHU022 cells are shown. Membrane was reprobed with the antibody for actin as an internal control. (B) Representative Western blot image for phospho-STAT3 (pSTAT3 Tyr-705) and total STAT3 expression in Cal27 and JHU029 cells with BME or M-I treatment. Membrane was reprobed by actin as an internal control. Quantitative representation of Western blot band intensities (right panel). Small bar indicates standard error (* p < 0.05; *** p < 0.001). (C) Cal27 cells were treated with 2% BME or M-I (10 μg/mL) at indicated time points. (D) Cal27 cells were treated with control siRNA or siRNA to c-Met (si-Met) for 48 hr. Cell lysates (from panels c and D) were subjected to analyze by western blot for pSTAT3 or STAT3 using specific antibody. Membranes were reprobed by actin as internal control. Quantitative representation of Western blot band intensities (right panel). Small bar indicates standard error (*** p < 0.001).
(§6) Bitter melon extract (BME) was prepared from the Chinese variety of young bitter melons (raw and green) as described previously. Briefly, BME was prepared by aqueous extraction from whole fruit without seeds using a household juicer at room temperature with subsequent centrifugation at 15000× g at 4 °C for 30 min. BME was stored at −80 °C for further analysis. Cal27 and JHU029 cells were treated with 2% BME and JHU022 cells were treated with 3% BME as described previously. The momordicine-I (>98% pure) was purchased from Chemfaces (Cat. No.: CFN92076; Hubei, China). The powder was dissolved in DMSO and added to the cells at different concentrations. Based on cytotoxicity data, Cal27 and JHU029 cells were treated with 10 µg/mL and JHU022 cells were treated with 20 µg/mL dose of M-I and incubated for 48 hr for further experiments. All the experiments were done at least in triplicate.
(§7) Lysates from control, BME or M-I treated cells and tumors were prepared using 2× SDS sample buffer and subjected to western blot analysis using specific antibodies to c-Met (1: 500, Cell Signaling Technology, CST, Denvers, MA, USA,), phospho- STAT3 (pSTAT3-Tyr-705) (1:1000, CST), total STAT3 (1:1000, CST), c-Myc (1:1000, CST), survivin (1:500, Santa Cruz Biotechnology, SBT, Dallas, TX, USA) and cyclin D1 (1: 500, SBT). HRP conjugated anti-mouse or anti-rabbit secondary antibodies were purchased from Bio-Rad (Hercules, CA, USA). The blot was reprobed with HRP conjugated β-actin antibody (1:5000; SBT) to compare protein load in each lane. Densitometry analysis was done using Image J software (NIH, Bethesda, MD, USA).

[10] = system: c-Met; assay: Western blot of treated HNC cells; format: cell-based, human; settings: Cal27, JHU029 and JHU022 cells, 48 hr; 2% or 3% BME, 10 or 20 µg/mL M-I; vs vehicle control
Protocol: as §5, §6, §7

[11] = system: total STAT3; assay: Western blot of treated HNC cells; format: cell-based, human; settings: for total STAT3 level, short term treatment: Cal27 cells, 2% BME or 10 μg/mL M-I
Protocol: as §5, §6, §7

[12] = system: survivin; assay: Western blot of treated HNC cells; format: cell-based, human; settings: Cal27 and JHU029 cells, 48 hr; 2% BME or 10 µg/mL M-I
Protocol: Bitter melon extract (BME) was prepared from the Chinese variety of young bitter melons (raw and green) as described previously [17]. Briefly, BME was prepared by aqueous extraction from whole fruit without seeds using a household juicer at room temperature with subsequent centrifugation at 15000× g at 4 °C for 30 min. BME was stored at −80 °C for further analysis. Cal27 and JHU029 cells were treated with 2% BME and JHU022 cells were treated with 3% BME as described previously [17, 21]. […] The powder was dissolved in DMSO and added to the cells at different concentrations. Based on cytotoxicity data, Cal27 and JHU029 cells were treated with 10 µg/mL and JHU022 cells were treated with 20 µg/mL dose of M-I and incubated for 48 hr for further experiments. All the experiments were done at least in triplicate.
HRP conjugated anti-mouse or anti-rabbit secondary antibodies were purchased from Bio-Rad (Hercules, CA, USA). The blot was reprobed with HRP conjugated β-actin antibody (1:5000; SBT) to compare protein load in each lane. […]

SMILES: CC(C)=CC(O)CC(C)[C@H]1CC[C@@]2(C)[C@@H]3[C@@H](O)C=C4[C@@H](CC[C@H](O)C4(C)C)[C@]3(C=O)CC[C@]12C (stereo partly drawn) [M-I, (3S, 7S, 8S, 9R, 10R, 13R, 14S, 17R) 3,7-dihydroxy-17-(4-hydroxy-6-methylhept-5-en-2-yl)-4,4,13,14-tetramethyl-2,3,7,8,10,11, 12,15,16,17-decahydro-1H-cyclopenta[a]phenanthrene-9-carbaldehyde]
- IC50 [1]: 17 µg/mL (≈ 36 µM)
- cytotoxic effect on normal oral keratinocytes [2]: minimum effect
- IC50 [3]: 6.5 µg/mL (≈ 13.8 µM)
- IC50 [4]: 7 µg/mL (≈ 14.8 µM)
- Reported Biology [5]: • stimulate insulin secretion in vitro • diabetes-associated cardiac fibrosis.
- cyclin D1 expression [6]: significant inhibition
- c-Myc expression [7]: significant inhibition
- stability in mouse blood [8]: stable
- phospho-STAT3 (Tyr-705) expression ([9]; Cal27 and JHU029 cells, 48 hr, 2% BME or 10 µg/mL M-I): significant reduction
- pSTAT3 level, short term treatment ([9]; Cal27 cells, 15 min, 2% BME or 10 μg/mL M-I): inhibits
- c-Met expression [10]: significant reduction
- total STAT3 level ([11]; Cal27 and JHU029 cells, 48 hr, 10 µg/mL M-I): substantial reduction
- total STAT3 level, short term treatment ([11]; 15 min): without affecting
- total STAT3 level, short term treatment ([11]; 240 min): inhibited
- survivin expression [12]: significant inhibition
